Measured values: article PMC5996347, “2-Mercapto-Quinazolinones as Inhibitors of Type II NADH Dehydrogenase and Mycobacterium tuberculosis: Structure–Activity Relationships, Mechanism of Action and Absorption, Distribution, Metabolism, and Excretion Characterization” (ACS Infectious Diseases, 2018)
In brackets after ≈: the same amount, converted by molar mass.

Assays:
[1] = physchem; type: physicochemical; settings: for solubility kinetic: water, kinetic from dmso stock
Method: The aqueous solubility of the test compounds was measured using laser nephelometry. Compounds were subject to serial dilution from 10 to 0.5 mM in DMSO. An aliquot was then mixed with Milli-Q water to obtain an aqueous dilution plate with a final concentration range of 250–12 μM, with a final DMSO concentration of 2.5%. Triplicate aliquots were transferred to a flat bottomed polystyrene plate which was immediately read on the NEPHELOstar (BMG Lab Technologies). The amount of laser scatter caused by insoluble particulates (relative nephelometry units, RNU) was plotted against compound concentration using a segmental regression fit, with the point of inflection being quoted as the compounds aqueous solubility (μM).

[2] = tested on: M. tuberculosis H37Rv; test: microbe, parasite or virus in culture; type: cell-based; settings: Mycobacterium tuberculosis, read-out: 7H9-ADC MIC
[3] = tested on: M. tuberculosis H37Rv; test: H37Rv MIC in GAST medium; type: cell-based, Mycobacterium tuberculosis; settings: Mycobacterium tuberculosis, H37RV; read-out: GAST MIC
[4] = type: in vitro ADME; settings: female, CD1, mouse, 0.5 μM, pH 7.4
Method: Test compound (0.5 μM) was incubated with female CD1 mouse liver microsomes (Xenotech LLC; 0.5 mg/mL, 50 mM potassium phosphate buffer, pH 7.4), and the reaction started with addition of excess NADPH (8 mg/mL, 50 mM potassium phosphate buffer, pH 7.4). Immediately, at time zero, and then at 3, 6, 9, 15, and 30 min, an aliquot (50 μL) of the incubation mixture was removed and mixed with acetonitrile (100 μL) to stop the reaction. Internal standard was added to all samples; the samples were centrifuged to sediment precipitated protein, and the plates were then sealed prior to UPLC-MS/MS analysis using a Quattro Premier XE (Waters Corporation, USA). XLfit (IDBS, UK) was used to calculate the exponential decay and consequently the rate constant (k) from the ratio of peak area of test compound to internal standard at each time point. The rate of intrinsic clearance (Cli) of each test compound was then calculated using the following calculation. [drawing 1] where V (mL/mg protein) is the incubation volume/mg protein added and microsomal protein yield is taken as 52.5 mg protein/g liver. Verapamil (0.5 μM) was used as a positive control to confirm acceptable assay performance.

[5] = Calculated properties (StarDrop)
[6] = target: T1, recombinant MBP-MtNdh (MTb NDH-2) (Mycobacterium tuberculosis, UniProt P95160); test: Ndh activity assay (NADH oxidation at 340 nm); type: biochemical; settings: NADH 250 μM, Q2 40 μM; mean ± SD, Figure 6 inset; read-out: IC50 against MBP-MtNdh
T1 construct: The ORF corresponding to Rv1854c was codon optimized for E. coli; made in house; host or cells: E. coli BL21 (DE3) pLysS
T1 sequence (P95160 whole entry): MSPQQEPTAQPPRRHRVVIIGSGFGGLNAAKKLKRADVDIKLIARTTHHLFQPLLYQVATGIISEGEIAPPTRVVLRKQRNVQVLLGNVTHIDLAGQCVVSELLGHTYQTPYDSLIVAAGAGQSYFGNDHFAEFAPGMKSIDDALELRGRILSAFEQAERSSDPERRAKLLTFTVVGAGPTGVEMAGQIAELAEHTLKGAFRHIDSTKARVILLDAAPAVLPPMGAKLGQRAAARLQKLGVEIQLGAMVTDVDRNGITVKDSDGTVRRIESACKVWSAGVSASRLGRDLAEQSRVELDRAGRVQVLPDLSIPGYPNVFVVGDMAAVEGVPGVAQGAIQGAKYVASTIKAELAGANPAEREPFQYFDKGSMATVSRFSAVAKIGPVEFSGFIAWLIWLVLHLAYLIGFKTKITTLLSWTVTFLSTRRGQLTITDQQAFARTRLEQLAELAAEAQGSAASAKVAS

Row | SMILES | Kinetic solubility [1] | MIC [2] | MIC [3] | Microsomal Cli, mouse [4] | solubility kinetic [1] | PFI [5] | IC50 [6]
1 | CC(Sc1nc2ccccc2c(=O)[nH]1)C(=O)NC1CCCCC1 (stereo not shown) [Compound 15, N-Cyclohexyl-2-((4-oxo-3,4-dihydroquinazolin-2-yl)thio)propanamide] | 250 µM | 50 µM (≈ 16.6 µg/mL) | 50 µM (≈ 16.6 µg/mL) | 7.5 mL/min/g | – | – | –
2 | O=C(CSc1nc2ccccc2c(=O)[nH]1)NC1CCC1 [Compound 6, N-Cyclobutyl-2-((4-oxo-3,4-dihydroquinazolin-2-yl)thio)acetamide] | – | 1.6 µM (≈ 0.463 µg/mL) | 1.6 µM (≈ 0.463 µg/mL) | 1.8 mL/min/g | 219 µM (≈ 63.4 µg/mL) | – | –
3 | CN(C(=O)CSc1nc2ccccc2c(=O)[nH]1)C1CCCCC1 [Compound 14, N-Cyclohexyl-N-methyl-2-((4-oxo-3,4-dihydroquinazolin-2-yl)thio)acetamide] | 250 µM | 50 µM (≈ 16.6 µg/mL) | 50 µM (≈ 16.6 µg/mL) | 13 mL/min/g | – | – | –
4 | Nc1nc(SCC(=O)NC2CCCCC2)nc2ccccc12 [Compound 22, 2-((4-Aminoquinazolin-2-yl)thio)-N-cyclohexylacetamide] | – | 50 µM (≈ 15.8 µg/mL) | 50 µM (≈ 15.8 µg/mL) | – | – | – | –
5 | O=C(CSc1nc2cnccc2c(=O)[nH]1)NC1CCC(F)(F)CC1 [Compound 27, N-(4,4-Difluorocyclohexyl)-2-((4-oxo-3,4-dihydropyrido[3,4-d]pyrimidin-2-yl)thio)acetamide] | – | 2.5 µM (≈ 0.886 µg/mL) | 9.4 µM (≈ 3.33 µg/mL) | 1.6 mL/min/g | 250 µM (≈ 88.6 µg/mL) | – | –
6 | O=C(CSc1nc2ccccc2c(=O)[nH]1)NCC1CCCCC1 [Compound 10, N-(Cyclohexylmethyl)-2-((4-oxo-3,4-dihydroquinazolin-2-yl)thio)acetamide] | – | 0.3 µM (≈ 0.0994 µg/mL) | 0.2 µM (≈ 0.0663 µg/mL) | 5.9 mL/min/g | – | – | –
7 | Cc1nc(SCC(=O)NC2CCCCC2)nc(O)c1C [Compound 25, N-Cyclohexyl-2-((4,5-dimethyl-6-oxo-1,6-dihydropyrimidin-2-yl)thio)acetamide] | – | 12.5 µM (≈ 3.69 µg/mL) | 6.3 µM (≈ 1.86 µg/mL) | 1.1 mL/min/g | 250 µM (≈ 73.9 µg/mL) | – | –
8 | O=C(CSc1nc2c(c(=O)[nH]1)CCC2)NC1CCCCC1 [Compound 24, N-Cyclohexyl-2-((4-oxo-4,5,6,7-tetrahydro-3H-cyclopenta[d]pyrimidin-2-yl)thio)acetamide] | – | 1.2 µM (≈ 0.369 µg/mL) | 1.6 µM (≈ 0.492 µg/mL) | 1.2 mL/min/g | 250 µM (≈ 76.9 µg/mL) | – | –
9 | O=C(CCc1nc2ccccc2c(=O)[nH]1)NC1CCCCC1 [Compound 19, N-Cyclohexyl-3-(4-oxo-3,4-dihydroquinazolin-2-yl)propanamide] | – | 50 µM (≈ 15 µg/mL) | 50 µM (≈ 15 µg/mL) | 1.6 mL/min/g | 250 µM (≈ 74.8 µg/mL) | – | –
10 | CC(Sc1nc2ccccc2c(=O)[nH]1)C(=O)N(C)C1CCCCC1 (stereo not shown) [Compound 16, N-Cyclohexyl-N-methyl-2-((4-oxo-3,4-dihydroquinazolin-2-yl)thio)propanamide] | – | 50 µM (≈ 17.3 µg/mL) | 50 µM (≈ 17.3 µg/mL) | 50 mL/min/g | 250 µM (≈ 86.4 µg/mL) | – | –
11 | O=C(CNc1nc2ccccc2c(=O)[nH]1)NC1CCCCC1 [Compound 17, N-Cyclohexyl-2-((4-oxo-3,4-dihydroquinazolin-2-yl)amino)acetamide] | – | 50 µM (≈ 15 µg/mL) | 50 µM (≈ 15 µg/mL) | 2.1 mL/min/g | 250 µM (≈ 75.1 µg/mL) | – | –
12 | O=C(CSc1nc2ccc(F)cc2c(=O)[nH]1)NC1CCC(F)(F)CC1 [Compound 26, N-(4,4-Difluorocyclohexyl)-2-((6-fluoro-4-oxo-3,4-dihydroquinazolin-2-yl)thio)acetamide] | – | 0.8 µM (≈ 0.297 µg/mL) | 0.6 µM (≈ 0.223 µg/mL) | 2.2 mL/min/g | 55 µM (≈ 20.4 µg/mL) | – | –
13 | O=C(COc1nc2ccccc2c(=O)[nH]1)NC1CCCCC1 [Compound 18, N-Cyclohexyl-2-((4-oxo-3,4-dihydroquinazolin-2-yl)oxy)acetamide] | – | 50 µM (≈ 15.1 µg/mL) | 25 µM (≈ 7.53 µg/mL) | – | – | – | –
14 | O=C(CSc1ncc2ccccc2n1)NC1CCCCC1 [Compound 21, N-Cyclohexyl-2-(quinazolin-2-ylthio)acetamide] | – | 50 µM (≈ 15.1 µg/mL) | 50 µM (≈ 15.1 µg/mL) | – | – | – | –
15 | Cn1c(SCC(=O)NC2CCCCC2)nc2ccccc2c1=O [Compound 20, N-Cyclohexyl-2-((3-methyl-4-oxo-3,4-dihydroquinazolin-2-yl)thio)acetamide] | – | 50 µM (≈ 16.6 µg/mL) | 50 µM (≈ 16.6 µg/mL) | 11 mL/min/g | – | – | –
16 | O=C(CSc1nc2ccccc2c(=O)[nH]1)NC1CCCC1 [Compound 5, N-Cyclopentyl-2-((4-oxo-3,4-dihydroquinazolin-2-yl)thio)acetamide] | – | 1.8 µM (≈ 0.546 µg/mL) | 1 µM (≈ 0.303 µg/mL) | 2.5 mL/min/g | 101 µM (≈ 30.6 µg/mL) | – | –
17 | O=C(CSc1nc2c(c(=O)[nH]1)CCCC2)NC1CCCCC1 [Compound 23, N-Cyclohexyl-2-((4-oxo-3,4,5,6,7,8-hexahydroquinazolin-2-yl)thio)acetamide] | – | 1.6 µM (≈ 0.514 µg/mL) | 1.2 µM (≈ 0.386 µg/mL) | 6.6 mL/min/g | 250 µM (≈ 80.4 µg/mL) | – | –
18 | Cc1csc2nc(SCC(=O)NC3CCCCC3)[nH]c(=O)c12 [Compound 3] | – | > 50 µM | 43 µM (≈ 14.5 µg/mL) | – | – | 4.7 | 210 ± 25 nM
19 | O=C(CSc1nc2ccccc2c(=O)[nH]1)NC1CCCCC1(F)F (stereo not shown) [Compound 8, N-(2,2-Difluorocyclohexyl)-2-((4-oxo-3,4-dihydroquinazolin-2-yl)thio)acetamide] | – | 12.5 µM (≈ 4.42 µg/mL) | 9.4 µM (≈ 3.32 µg/mL) | 2.3 mL/min/g | 219 µM (≈ 77.4 µg/mL) | – | –
20 | O=C(CSc1nc2ccccc2c(=O)[nH]1)NC1CCCCCC1 [Compound 4, N-Cycloheptyl-2-((4-oxo-3,4-dihydroquinazolin-2-yl)thio)acetamide] | – | 0.6 µM (≈ 0.199 µg/mL) | 0.3 µM (≈ 0.0994 µg/mL) | 6.4 mL/min/g | 39 µM (≈ 12.9 µg/mL) | – | –
21 | O=C(CSc1nc2ccccc2c(=O)[nH]1)NC1CCCC(F)(F)C1 (stereo not shown) [Compound 9, N-(3,3-Difluorocyclohexyl)-2-((4-oxo-3,4-dihydroquinazolin-2-yl)thio)acetamide] | – | 4.7 µM (≈ 1.66 µg/mL) | 4.7 µM (≈ 1.66 µg/mL) | 2.9 mL/min/g | 187 µM (≈ 66.1 µg/mL) | – | –
